Results: patent US20240300945A1, “CLY SERIES COMPOUND, PREPARATION METHOD THEREFOR AND USE THEREOF IN PREPARATION OF DRUGS” (NANJING WELLBEST PHARMACEUTICAL CO., LTD, priority 2021, published 2024)
Marks after values point to notes of the source that are not given here.

Assays:
rat hair loss model = assay: Rat hair loss (androgenic alopecia) model: hair length; type: in vivo, Wistar rats; details: for 15-day hair length / 30-day hair length / 45-day hair length / 60-day hair length: rat AGA model; for adverse reactions: rat hair loss model, external use and system application, 60 days
From the text: (1) Compound CLY-1, CLY-2, CLY-3, CLY-4, CLY-5, CLY-8, CLY-11, CLY-19, CLY-36, CLY-39 tincture preparation method: 75% ethanol was mixed with appropriate amount of above compounds to prepare a tincture of different concentrations.
(2) Positive treatment drug: 5% minoxidil tincture (trade name: Mandi, Zhejiang Wanma Pharmaceutical Co., Ltd.).
Wistar rats were, according to weights, randomly divided into the negative control group (75% ethanol for external use), model group (75% ethanol for external use), positive control group (external 5% minoxidil tincture), CLY-1 external treatment group (external 5% CLY-1 tincture), CLY-2 external treatment group (external 5% CLY-2 tincture), CLY-3 external treatment group (external 5% CLY-3 tincture), CLY-4 external treatment group (external 5% CLY-4 tincture), and CLY-5 external treatment group (external 5% CLY-5 tincture) according to their body weight CLY-8 external treatment group (external 5% CLY-8 tincture), CLY-11 external treatment group (external 5% CLY-11 tincture), CLY-19 external treatment group (external 5% CLY-19 tincture), CLY-36 external treatment group (external 5% CLY-36 tincture), CLY-39 external treatment group (external 5% CLY-39 tincture), CLY-1 intravenous injection group (2 mg/kg·d), CLY-3 intravenous injection group (2 mg/kg·d), CLY-4 intravenous injection group (2 mg/kg·d) CLY-5 intravenous injection group (2 mg/kg·d), CLY-8 intravenous injection group (2 mg/kg·d), CLY-11 intravenous injection group (2 mg/kg·d), CLY-19 intravenous injection group (2 mg/kg·d), CLY-36 intravenous injection group (2 mg/kg·d), and CLY-39 intravenous injection group (2 mg/kg·d), with 10 rats in each group. Before the experiment, an area of 4 cm×5 cm was selected on each rat on the back of the neck to remove hair as the observation area. In addition to the negative control group, rats were subcutaneously injected with testosterone propionate injection [5 ml/(kg·d)] once a day for 60 days to establish the androgenic alopecia (AGA) model. […] At the same time, the drug was applied to the observation area on the back of the rats in the corresponding drug group at the rate of 2 mL/(one time), twice a day, at an interval of 8 hours; Intravenous administration once a day. The negative control group and the model control group were smeared with 75% ethanol solution, 2 mL/(one rat per time), twice a day, for 60 days.
Took 10 hairs from the observation area on the back of each rat every 15 days after administration, and measured the hair length with a vernier caliper. After 60 days of administration, the skin of the experimental observation area was taken for routine tissue dehydration, paraffin embedding, HE staining, and light microscopy to observe the histopathological changes of the rat skin hair follicles and sebaceous glands. Semi-quantitative analysis was performed for each group. The grading criteria are as follows: the normal structure of dermal tissue cells, subcutaneous hair follicles, and sebaceous glands is marked as […]: no hyperplasia of dermal tissue is found, the lesions of hair follicles and sebaceous glands are limited, and no inflammation is found under the skin is marked as “+”: no obvious hyperplasia of dermal tissue is found, and the follicles are obviously cystic. No obvious hyperplasia of sebaceous glands is found, and no inflammation is found under the skin is marked as “+”: the dermal tissue has segmental hyperplasia, which is not obvious, A small number of hair follicles have cystic changes, and the sebaceous glands have mild hyperplasia and hypertrophy. There is no obvious inflammation under the skin, which is marked as “++”: the dermal tissue cells of the skin have different degrees of segmental hyperplasia, and some hair follicles have cystic changes, showing uneven size of hair follicles, and no cells around. The sebaceous glands have hyperplasia, and the nuclei in the proliferative glands are few. […]

[1] = test system: skin hair follicles and sebaceous glands of mice; assay: Mouse hair loss model: histopathological grading of skin hair follicles and sebaceous glands; type: in vivo, C57BL/6 mice; details: external 2% tincture, 60 days, 6 mice per group; for number of mice with hair follicle and sebaceous gland grade +++: grade +++ (most severe); for number of mice with hair follicle and sebaceous gland grade ±: grade ± (lesions limited); for number of mice with hair follicle and sebaceous gland grade −: grade − (normal structure)
From the text: The experimental mice were divided into the negative control group (external use of 60% ethanol), model group (external use of 60% ethanol), positive control group (external use of 2% minoxidil tincture), CLY-1 external treatment group (external use of 2% CLY-1 tincture), CLY-2 external treatment group (external use of 2% CLY-2 tincture), CLY-3 external treatment group (external use of 2% CLY-3 tincture), CLY-4 external treatment group (external use of 2% CLY-4 tincture), CLY-8 external treatment group (external use of 2% CLY-8 tincture) CLY-11 external treatment group (2% CLY-11 tincture), CLY-19 external treatment group (2% CLY-19 tincture), CLY-36 external treatment group (2% CLY-36 tincture), and CLY-39 external treatment group (2% CLY-39 tincture). There were 6 animals in each group, half male and half female. An area of 4 cm×5 cm from the back of experimental mice with hair removed was selected, and the hair removal area was painted yellow with 3% picric acid solution to determine the observation area of the hair removal experiment. In addition to the negative control group, mice in other groups were injected subcutaneously with testosterone propionate injection [8 ml/(kg·d)] at the back of the neck, once a day, for 60 consecutive days, to establish the model of androgenic alopecia (AGA). At the same time of modeling, the rats in the corresponding drug group were smeared with drugs on the observation area of the back at the rate of 1 ml/(piece·time), twice a day, with an interval of 2 hours. The normal control group and the model control group were smeared with the excipient (60% ethanol solution), 1 ml/(one time), twice a day, for 60 consecutive days.
10 hairs were extracted from the observation area on the back of each mouse every 15 days after administration, and the hair length was measured with a vernier caliper. After 60 days of administration, the skin of the experimental observation area was taken for routine tissue dehydration, paraffin embedding, HE staining, and light microscopy to observe the histopathological changes of mouse skin hair follicles and sebaceous glands. Semi-quantitative analysis was performed for each group. The grading criteria are as follows: the normal structure of dermal tissue cells, subcutaneous hair follicles, and sebaceous glands is marked as […]: no hyperplasia of dermal tissue is found, the lesions of hair follicles and sebaceous glands are limited, and no inflammation is found under the skin is marked as “+”: no obvious hyperplasia of dermal tissue is found, and the follicles are obviously cystic. No obvious hyperplasia of sebaceous glands is found, and no inflammation is found under the skin is marked as “+”: the dermal tissue has segmental hyperplasia, which is not obvious, A small number of hair follicles have cystic changes, and the sebaceous glands have mild hyperplasia and hypertrophy. There is no obvious inflammation under the skin, which is marked as “++”: the dermal tissue cells of the skin have different degrees of segmental hyperplasia, and some hair follicles have cystic changes, showing uneven size of hair follicles, and no cells around. The sebaceous glands have hyperplasia, and the nuclei in the proliferative glands are few. A few subcutaneous mild inflammatory hyperplasia is marked as “+++”.

[2] = external 5% tincture twice a day
[3] = intravenous injection 2 mg/kg·d

Row | SMILES | 15-day hair length (rat hair loss model; [2]) | 30-day hair length (rat hair loss model; [2]) | 45-day hair length (rat hair loss model; [2]) | 60-day hair length (rat hair loss model; [2]) | 15-day hair length (rat hair loss model; [3]) | 30-day hair length (rat hair loss model; [3]) | 45-day hair length (rat hair loss model; [3]) | 60-day hair length (rat hair loss model; [3]) | adverse reactions (rat hair loss model) | number of mice with hair follicle and sebaceous gland grade +++ [1] | number of mice with hair follicle and sebaceous gland grade ++ [1] | number of mice with hair follicle and sebaceous gland grade + [1] | number of mice with hair follicle and sebaceous gland grade ± [1] | number of mice with hair follicle and sebaceous gland grade − [1]
1 | CN1CCC[C@@H](N(C(=O)c2ccc(-n3nnc4cccnc43)cc2)c2ncccc2Cl)C1 [CLY-1, (R)-4-(3H-[1,2,3]triazolo[4,5-b]pyridin-3-yl)-N-(3-chloropyridin-2-yl)-N-(1-methylpiperidin-3-yl)benzamide] | 8.3* mm | 9.3* mm | 14.2* mm | 17.6* mm | 8.7* mm | 9.6* mm | 14.6* mm | 17.9* mm | no obvious adverse reactions | 0 | 1 | 2 | 3 | 0
2 | CCN1CCC[C@@H](N(C(=O)c2ccc(-n3nnc4cccnc43)cc2)c2ncccc2Cl)C1 [CLY-2, (R)-4-(3H-[1,2,3]triazolo[4,5-b]pyridin-3-yl)-N-(3-chloropyridin-2-yl)-N-(1-ethylpiperidin-3-yl)benzamide] | 9.1* mm | 10.1* mm | 15.3* mm | 18.9* mm | 9.2* mm | 10.3* mm | 15.6* mm | 19.1* mm | no obvious adverse reactions | 0 | 0 | 2 | 4 | 0
3 | CNC1CCCC(N(C(=O)c2ccc(-n3nnc4cccnc43)cc2)c2ncccc2Cl)C1 (stereo not drawn) [CLY-3] | 7.5* mm | 8.6* mm | 12.45* mm | 16.3* mm | 7.3* mm | 8.9* mm | 13.9* mm | 16.8* mm | no obvious adverse reactions | 0 | 2 | 1 | 3 | 0
4 | O=C(c1ccc(-n2nnc3cccnc32)cc1)N(c1ncccc1Cl)C1CCCC(O)C1 (stereo not drawn) [CLY-4] | 7.2* mm | 8.3* mm | 12.26* mm | 16.1* mm | 7.1* mm | 8.6* mm | 13.5* mm | 16.3* mm | no obvious adverse reactions | 0 | 2 | 2 | 2 | 0
5 | COC1CCCC(N(C(=O)c2ccc(-n3nnc4cccnc43)cc2)c2ncccc2Cl)C1 (stereo not drawn) [CLY-5] | 9.2* mm | 10.2* mm | 15.5* mm | 18.9* mm | 7.8* mm | 9.3* mm | 13.7* mm | 16.4* mm | no obvious adverse reactions |  |  |  |  | 
6 | O=C(c1ccc(-n2nnc3cccnc32)cc1)N(c1ncccc1Cl)[C@@H]1CCNC1 [CLY-8, (R)-4-(3H-[1,2,3]triazolo[4,5-b]pyridin-3-yl)-N-(3-chloropyridin-2-yl)-N-(pyrrolidin-3-yl)benzamide] | 9.3* mm | 10.3* mm | 15.7* mm | 19.2* mm | 7.3* mm | 9.5* mm | 13.8* mm | 17.8* mm | no obvious adverse reactions | 0 | 0 | 2 | 4 | 0
7 | NC1CCCC(N(C(=O)c2ccc(-n3nnc4cccnc43)cc2)c2ncccc2Cl)C1 (stereo not drawn) [CLY-11] | 8.2* mm | 9.1* mm | 13.89* mm | 17.4* mm | 8.6* mm | 9.3* mm | 14.7* mm | 17.6* mm | no obvious adverse reactions | 0 | 2 | 1 | 3 | 0
